pIC50: −log10 of the molar value.
Key:
androgen receptor = androgen receptor (Rattus norvegicus (Rat), UniProt P15207); test: androgen receptor binding assay (fluorescence polarization, Invitrogen); conditions: AR-Fluormone complex, 4 h at room temperature
Method: The assay was performed as specified by the manufacturer (Invitrogen, Madison, Wis.). Briefly, 1 μl of 10 mM compound was added to 500 μl of AR screening buffer in a 1.5 ml eppendorf tube to make a 2×10^−5M stock. 10-fold serial dilutions of the test compounds were prepared ranging in concentration from 10^−5M to 10^−12M. Each dilution was added in triplicate to a black 384-microtiter plate. The test compounds will be diluted 2-fold in the final reaction. 2×AR-Fluormone™ complex was prepared with 2 nM Flourmone AL Green™ and 30 nM AR. 25 μl of 2×complex was aliquoted to each reaction well, such that the final reaction volume was 50 μl per well. Plate was sealed with a foil cover and incubated in the dark at room temperature for 4 h. Polarization values for each well were measured. The polarization values were plotted against the concentration of the test compound. […] As a control, a competition curve for R1881 (methyltrienolone) was performed for each assay.

[1] = tested on: immature, castrated rat (levator ani and bulba cavernous, LABC); test: In vivo rat Herschberger assay, LABC weight; design: key: no = no activity observed at highest dose tested.; yes = increased LABC weight relative to castrated vehicle control; conditions: once daily oral gavage for 4 days
Source text: In Vivo Rat Model of Androgen and Anabolic Activity-Rat Herschberger Assay
The following is a typical procedure of the in vivo evaluation of the selective androgens of this invention. In particular, this assay looks primarily at the ability of the selective androgens of this invention to increase muscle size in an immature, castrated rat. In addition, androgenic effects are looked at primarily by weighing the prostate and seminal vesicles. Selective compounds will show a greater increase in the levator ani relative to the prostate and seminal vesicles when compared to testosterone treated, castrated animals or to intact animals that have not been treated. Immature Sprague Dawley male rats were obtained Charles River Laboratories (Stoneridge, N.Y.). All animals were maintained in a temperature and humidity controlled room with a 12 hr light: 12 hr dark cycle, with ad lib access to food (TD 291615, Teklad, Madison, Wis.) and water. Rats were anesthetized and orchidectomized (GDX) or sham surgery (SHAM) was performed. After a 7-day recovery period, the animals were randomized according to weight and assigned to treatment groups (n=5), SHAM, OVX+vehicle, OVX+Cpd treated. Testosterone propionate (TP 1 mg/kg in 5% DMSO/95% corn oil) was administered by once daily subcutaneous injections, while the compounds of the invention are dosed in vehicle (0.5% carboxymethylcellulose) was administered by once daily oral gavage. The rats were then dosed once daily for 4 days. All animals were euthanized via carbon dioxide inhalation 24 hs after the last dose. The prostate, seminal vesicle and levator ani and bulba cavernous (LABC) tissues were removed, weighed and recorded. An increase in mean LABC indicates anabolic activity for that particular compound with regard to oral dosing typically at a maximum tested dose of between 1 mg/kg and 30 mg/kg—see Table 1.

[2] = maximum tested dose between 1 mg/kg and 30 mg/kg, Table 1

Chain of androgen receptor (P15207 651-902): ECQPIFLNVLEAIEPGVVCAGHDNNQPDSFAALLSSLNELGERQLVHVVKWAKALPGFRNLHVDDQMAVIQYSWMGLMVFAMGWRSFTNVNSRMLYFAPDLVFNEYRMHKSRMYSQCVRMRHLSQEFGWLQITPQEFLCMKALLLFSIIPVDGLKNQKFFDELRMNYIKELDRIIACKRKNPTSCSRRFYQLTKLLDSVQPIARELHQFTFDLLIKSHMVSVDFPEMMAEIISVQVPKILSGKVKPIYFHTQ

Row | Structure (SMILES) | pIC50 (androgen receptor; Table 1) | Oral activity in Herscheberger assay on LABC weight [1, 2] | pIC50 (androgen receptor; Table 2) | Oral activity in Herscheberger assay on LABC weight ([1]; Table 2)
1 | Cc1c(N2C(=O)O[C@@H](C)[C@@H]2[C@H](O)C(F)(F)F)ccc(C#N)c1Cl [Example 17, 2-chloro-3-methyl-4-((4S,5S)-5-methyl-2-oxo-4-((S)-2,2,2-trifluoro-1-hydroxyethyl)oxazolidin-3-yl)benzonitrile] | 7.89 | yes |  | 
2 | Cc1c(N2C(=O)CC[C@@H]2[C@H](O)C(F)(F)F)ccc(C#N)c1Cl [Example 29, 2-chloro-4-((R)-2-((S)-2,2,2-trifluoro-1-hydroxyethyl)-5-oxopyrrolidin-1-yl)-3-methylbenzonitrile] |  |  | 7.60 | yes
3 | CN1C[C@H]([C@H](O)C(F)(F)F)N(c2ccc(C#N)c(C(F)(F)F)c2)C1=O [Example 25, 4-((R)-5-((S)-2,2,2-trifluoro-1-hydroxyethyl)-3-methyl-2-oxoimidazolidin-1-yl)-2-(trifluoromethyl)benzonitrile] | 8.00 | no |  | 
4 | C[C@@H]1OC(=O)N(c2ccc(C#N)c(Cl)c2)[C@H]1[C@H](O)C(F)(F)F [Example 21, 2-Chloro-4-((4S,5S)-5-methyl-2-oxo-4-((S)-2,2,2-trifluoro-1-hydroxyethyl)oxazolidin-3-yl)benzonitrile] | 7.82 | yes |  | 
5 | C[C@@H]1OC(=O)N(c2ccc(C#N)c(Cl)c2)[C@H]1[C@@H](O)C(F)(F)F [Example 22, 2-Chloro-4-((4S,5S)-5-methyl-2-oxo-4-((R)-2,2,2-trifluoro-1-hydroxyethyl)oxazolidin-3-yl)benzonitrile] | 6.68 | yes |  | 
6 | N#Cc1ccc(N2C(=O)OC[C@H]2[C@H](O)C(F)(F)F)cc1Cl [Example 9, 2-chloro-4-((S)-2-oxo-4-((S)-2,2,2-trifluoro-1-hydroxyethyl)oxazolidin-3-yl)benzonitrile] | 7.35 | yes |  | 
7 | O=C1CC[C@H]([C@H](O)C(F)(F)F)N1c1ccc(Cl)c(Cl)c1 [Example 27, (R)-1-(3,4-dichlorophenyl)-5-((S)-2,2,2-trifluoro-1-hydroxyethyl)pyrrolidin-2-one] |  |  | 7.21 | yes
8 | Cc1c(N2C(=O)CC[C@@H]2[C@@H](O)C(F)(F)F)ccc(C#N)c1Cl [Example 30, 2-chloro-4-((R)-2-((R)-2,2,2-trifluoro-1-hydroxyethyl)-5-oxopyrrolidin-1-yl)-3-methylbenzonitrile] |  |  | 6.31 | no
9 | Cc1c(N2C(=O)OC[C@@H]2[C@H](O)C(F)(F)F)ccc(C#N)c1Cl [Example 11, 2-chloro-3-methyl-4-((R)-2-oxo-4-((S)-2,2,2-trifluoro-1-hydroxyethyl)oxazolidin-3-yl)benzonitrile] | 7.60 | yes |  | 
10 | N#Cc1ccc(N2C(=O)OC[C@@H]2[C@H](O)C(F)(F)F)cc1C(F)(F)F [Example 7, 4-((R)-2-oxo-4-((S)-2,2,2-trifluoro-1-hydroxyethyl)oxazolidin-3-yl)-2-(trifluoromethyl)benzonitrile] | 7.30 | yes |  | 

Source: patent US9133182B2, “Selective androgen receptor modulators” (Radius Health, Inc., priority 2010, dated 2015)
